As a reminder, the IC50 is the point on the concentration scale where inhibition reaches its midpoint.

Assay [1] has as its target recombinant human Mcl-1 (residues 171-327) / Bim interaction (Homo sapiens (Human), UniProt Q07820). The assay is described as follows: biochemical. It counts as binding. Particulars: read-out: Mcl-1 HTRF IC50. Background: TR-FRET usually uses a lanthanide donor and a delayed reading to cut background.
The subject of assay [2] is human multiple myeloma cell line, OPM-2. The assay is described as follows: Cell viability assay (OPM-2 10 FBS), CellTiter-Glo. It counts as cell-based. In outline: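 Steps: plate cells at 3000/well in 10% FBS growth medium, add serially diluted compound, incubate 16 h at 37 °C with 5% CO2, add detection reagent and read luminescence after 25 min. A 4-parameter logistic model gives IC50.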
In general terms: Cellular ATP, detected with luciferase, serves as a proxy for viable cell number.

The mark [3] stands for this setting: TR-FRET, Mcl-1(171-327) / biotin-Bim (51-76).
Setting [4] is: Homo sapiens, OPM-2, 16 h, read-out: OPM-2 10% FBS IC50 IP, OPM-2 cells, 10% FBS, 16 h, CellTiter-Glo.
Setting [5] is: 0.1 nM Mcl-1(171-327), 0.05 nM biotin-Bim (51-76).
Setting [6] is: Homo sapiens, OPM-2, 16 h, read-out: OPM-2 10% FBS IC50 IP, OPM-2 cells, 10% FBS, 16 h incubation.
Setting [7] is: read-out: OPM-2 10% FBS IC50 IP, OPM-2 cells, 10% FBS, 16 h, CellTiter-Glo.

Structures are written as SMILES. Like-named read-outs stand apart in the source and are kept apart here.

Chain of recombinant human Mcl-1 (residues 171-327) / Bim interaction (Q07820 171-327): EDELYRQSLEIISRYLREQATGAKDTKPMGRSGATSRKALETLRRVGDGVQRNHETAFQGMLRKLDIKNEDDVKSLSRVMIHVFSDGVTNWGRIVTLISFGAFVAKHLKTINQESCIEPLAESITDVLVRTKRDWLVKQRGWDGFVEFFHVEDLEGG

For `CO[C@@]1(C2SCCCS2)/C=C/C[C@H](C)[C@@H](C)S(=O)(=O)NC(=O)c2ccc3c(c2)N(C[C@@H]2CC[C@H]21)C[C@@]1(CCCc2cc(Cl)ccc21)CO3` [Example 100261, (1S,3′R,6′R,7′S,8′E,11′S,12′R)-6-chloro-7′-(1,3-dithian-2-yl)-7′-methoxy-11′,12′-dimethyl-3,4-dihydro-2H,15′H-spiro[naphthalene-1,22′-[20]oxa[13]thia[1,14]diazatetracyclo [14.7.2.0~3,6~.0~19,24~]pentacosa[8,16,18,24]tetraen]-15′-one 13′,13′-dioxide], the IC50 in assay [1] (setting [3]) stood at 1.22 nM; in assay [2] (setting [4]) it was 533 nM.

As to `CO[C@@]1(CN2CCN3C(=O)[C@H](C)OC[C@@H]3C2)/C=C/C[C@H](C)[C@@H](C)S(=O)(=O)NC(=O)c2ccc3c(c2)N(C[C@@H]2CC[C@H]21)C[C@@]1(CCCc2cc(Cl)ccc21)CO3` [Example 143, (1S,3′R,6′R,7′S,8′E,11′S,12′R)-6-chloro-7′-methoxy-11′,12′-dimethyl-7′-(((3S,9aS)-3-methyl-4-oxohexahydropyrazino[2,1-c][1,4]oxazin-8(1H)-yl)methyl)-3,4-dihydro-2H,15′H-spiro[naphthalene-1,22′-[20]oxa[13]thia[1,14]diazatetracyclo [14.7.2.0~3,6~.0~19,24~]pentacosa[8,16,18,24]tetraen]-15′-one 13′,13′-dioxide], the IC50 in assay [1] (setting [5]) came out at 0.432 nM; in assay [2] (setting [6]), 219 nM.

`CO[C@@]1(Cc2nc(CO)co2)/C=C/C[C@H](C)[C@@H](C)S(=O)(=O)NC(=O)c2ccc3c(c2)N(C[C@@H]2CC[C@H]21)C[C@@]1(CCCc2cc(Cl)ccc21)CO3` [Example 100570, (1S,3′R,6′R,7′S,8′E,11′S,12′R)-6-chloro-7′-((4-(hydroxymethyl)-1,3-oxazol-2-yl)methyl)-7′-methoxy-11′,12′-dimethyl-3,4-dihydro-2H,15′H-spiro[naphthalene-1,22′-[20]oxa[13]thia[1,14]diazatetracyclo [14.7.2.0~3,6~.0~19,24~]pentacosa[8,16,18,24]tetraen]-15′-one 13′,13′-dioxide]: the values for the IC50 in assay [1] (setting [3]) and in assay [2] (setting [4]) were 3.38 nM and 5050 nM, respectively.

`COCCN(C)C(=O)C[C@]1(OC)/C=C/C[C@H](C)[C@@H](C)S(=O)(=O)NC(=O)c2ccc3c(c2)N(C[C@@H]2CC[C@H]21)C[C@@]1(CCCc2cc(Cl)ccc21)CO3` [Example 100005, 2-((1 S,3′R,6′R,7′S,8′E,11′S, 12′R)-6-chloro-7′-methoxy-11′,12′-dimethyl-13′,13′-dioxido-15′-oxo-3,4-dihydro-2H-spiro[naphthalene-1,22′-[20]oxa[13]thia[1,14]diazatetracyclo[14.7.2.0-3,6˜.0˜19,24˜]pentacosa[8,16,18,24]tetraen]-7′-yl)-N-(2-methoxyethyl)-N-methylacetamide]: the 50% inhibitory concentration (IC50) in assay [1] (setting [3]) came out at 0.091 nM; in assay [2] (setting [4]) it was 62 nM.

With `CO[C@]1(CN2CCN3CCN(S(C)(=O)=O)C[C@@H]3C2)/C=C/C[C@H](C)[C@@H](C)S(=O)(=O)NC(=O)c2ccc3c(c2)N(C[C@@H]2CC[C@H]21)C[C@@]1(CCCc2cc(Cl)ccc21)CO3` [Example 227], the half-maximal inhibitory concentration (IC50) in assay [1] (setting [5]) came to 0.207 nM; in assay [2] (read-out: OPM-2 10% FBS IC50 IP, OPM-2 cells, 10% FBS, 16 h incubation) it was 131 nM.

Take `C[C@@H]1[C@@H](C)CCC[C@@](O)(CS(=O)(=O)N(C)C)[C@@H]2CC[C@H]2CN2C[C@@]3(CCCc4cc(Cl)ccc43)COc3ccc(cc32)C(=O)NS1(=O)=O` [Example 100100, 1-((1S,3′R,6′R,7′S,11′S,12′R)-6-chloro-7′-hydroxy-11′,12′-dimethyl-13′,13′-dioxido-15′-oxo-3,4-dihydro-2H-spiro[naphthalene-1,22′-[20]oxa[13]thia[1,14]diazatetracyclo [14.7.2.0~3,6~.0~19,24~]pentacosa[16,18,24]trien]-7′-yl)-N,N-dimethylmethanesulfonamide]: the IC50 in assay [1] was 2.1 nM; in assay [2] (setting [7]) it was 1320 nM.

Turning to `CO[C@]1(Cc2noc(C)c2C)/C=C/C[C@H](C)[C@@H](C)S(=O)(=O)NC(=O)c2ccc3c(c2)N(C[C@@H]2CC[C@H]21)C[C@@]1(CCCc2cc(Cl)ccc21)CO3` [Example 100574, (1S,3′R,6′R,7′R,8′E,11′S,12′R)-6-chloro-7′-((4,5-dimethyl-1,2-oxazol-3-yl)methyl)-7′-methoxy-11′,12′-dimethyl-3,4-dihydro-2H,15′H-spiro[naphthalene-1,22′-[20]oxa[13]thia[1,14]diazatetracyclo [14.7.2.0~3,6~.0~19,24~]pentacosa[8,16,18,24]tetraen]-15′-one 13′,13′-dioxide], the half-maximal inhibitory concentration (IC50) was 1.42 nM in assay [1] (setting [3]) and 4320 nM in assay [2] (setting [4]).

`CO[C@@]1(CN2CCN(C3CCC3)CC2)/C=C/C[C@H](C)[C@@H](C)S(=O)(=O)NC(=O)c2ccc3c(c2)N(C[C@@H]2CC[C@H]21)C[C@@]1(CCCc2cc(Cl)ccc21)CO3` [Example 281, (1S,3′R,6′R,7′S,8′E,11′S,12′R)-6-chloro-7′-((4-cyclobutyl-1-piperazinyl)methyl)-7′-methoxy-11′,12′-dimethyl-3,4-dihydro-2H,15′H-spiro[naphthalene-1,22′-[20]oxa[13]thia[1,14]diazatetracyclo [14.7.2.0~3,6~.0~19,24~]pentacosa[8,16,18,24]tetraen]-15′-one 13′,13′-dioxide]: the IC50 amounted to 0.181 nM in assay [1] (setting [5]) and 152 nM in assay [2] (setting [6]).

On to `CO[C@]1(Cc2cc(C)on2)/C=C/C[C@H](C)[C@@H](C)S(=O)(=O)NC(=O)c2ccc3c(c2)N(C[C@@H]2CC[C@H]21)C[C@@]1(CCCc2cc(Cl)ccc21)CO3` [Example 100548, (1S,3′R,6′R,7′R,8′E,11′S,12′R)-6-chloro-7′-methoxy-11′,12′-dimethyl-7′-((5-methyl-1,2-oxazol-3-yl)methyl)-3,4-dihydro-2H,15′H-spiro[naphthalene-1,22′-[20]oxa[13]thia[1,14]diazatetracyclo [14.7.2.0~3,6~.0~19,24~]pentacosa[8,16,18,24]tetraen]-15′-one 13′,13′-dioxide], for which the results for the IC50 in assay [1] (setting [3]) and in assay [2] (setting [4]) were 0.064 nM and 8410 nM, respectively.

`C[C@@H]1[C@@H](C)C/C=C/[C@](O)(C#CCC2CCOCC2)[C@@H]2CC[C@H]2CN2C[C@@]3(CCCc4cc(Cl)ccc43)COc3ccc(cc32)C(=O)NS1(=O)=O` [Example 100433, (1S,3′R,6′R,7′R,8′E,11′S,12′R)-6-chloro-7′-hydroxy-11′,12′-dimethyl-7′-(3-(tetrahydro-2H-pyran-4-yl)-1-propyn-1-yl)-3,4-dihydro-2H,15′H-spiro[naphthalene-1,22′-[20]oxa[13]thia[1,14]diazatetracyclo [14.7.2.0~3,6~.0~19,24~]pentacosa[8,16,18,24]tetraen]-15′-one 13′,13′-dioxide]: the results for the concentration for half-maximal inhibition (IC50) in assay [1] (setting [3]) and in assay [2] (setting [4]) were 0.026 nM and 296 nM, respectively.

Consider `C[C@@H]1[C@@H](C)C/C=C/[C@](O)(Cc2nccs2)[C@@H]2CC[C@H]2CN2C[C@@]3(CCCc4cc(Cl)ccc43)COc3ccc(cc32)C(=O)NS1(=O)=O` [Example 100246, (1S,3′R,6′R,7′R,8′E,11′S,12′R)-6-chloro-7′-hydroxy-11′,12′-dimethyl-7′-(1,3-thiazol-2-ylmethyl)-3,4-dihydro-2H,15′H-spiro[naphthalene-1,22′-[20]oxa[13]thia[1,14]diazatetracyclo [14.7.2.0~3,6~.0~19,24~]pentacosa[8,16,18,24]tetraen]-15′-one 13′,13′-dioxide], for which the IC50 in assay [1] turned out to be 0.326 nM; in assay [2] (setting [7]), 114 nM.

Regarding `CCO[C@@]1(CN2CCC(OC)CC2)/C=C/C[C@H](C)[C@@H](C)S(=O)(=O)NC(=O)c2ccc3c(c2)N(C[C@@H]2CC[C@H]21)C[C@@]1(CCCc2cc(Cl)ccc21)CO3` [Example 113, (1S,3′R,6′R,7′S,8′E,11′S,12′R)-6-chloro-7′-ethoxy-7′-((4-methoxy-1-piperidinyl)methyl)-11′,12′-dimethyl-3,4-dihydro-2H,15′H-spiro[naphthalene-1,22′-[20]oxa[13]thia[1,14]diazatetracyclo [14.7.2.0~3,6~.0~19,24~]pentacosa[8,16,18,24]tetraen]-15′-one 13′,13′-dioxide], the values for the IC50 in assay [1] (setting [5]) and in assay [2] (setting [6]) were 1.19 nM and 1330 nM, respectively.

Turning to `CO[C@]1(C#CCN2CCOCC2)/C=C/C[C@H](C)[C@@H](C)S(=O)(=O)NC(=O)c2ccc3c(c2)N(C[C@@H]2CC[C@H]21)C[C@@]1(CCCc2cc(Cl)ccc21)CO3` [Example 100409, (1S,3′R,6′R,7′R,8′E,11′S,12′R)-6-chloro-7′-methoxy-11′,12′-dimethyl-7′-(3-(4-morpholinyl)-1-propyn-1-yl)-3,4-dihydro-2H,15′H-spiro[naphthalene-1,22′-[20]oxa[13]thia[1,14]diazatetracyclo [14.7.2.0~3,6~.0~19,24~]pentacosa[8,16,18,24]tetraen]-15′-one 13′,13′-dioxide], the half-inhibitory concentration (IC50) was 0.124 nM in assay [1] (setting [3]) and 206 nM in assay [2] (setting [7]).

As to `CO[C@]1(CN2C[C@H]3CN(C)C[C@H]3C2)/C=C/C[C@H](C)[C@@H](C)S(=O)(=O)NC(=O)c2ccc3c(c2)N(C[C@@H]2CC[C@H]21)C[C@@]1(CCCc2cc(Cl)ccc21)CO3` [Example 82], the results for the IC50 in assay [1] (setting [5]) and in assay [2] (setting [6]) were 0.394 nM and 520 nM, respectively.
